The compounds below were run against full-length ATR (Homo sapiens (Human), UniProt Q13535) (assay: ATR Inhibition Assay (radioactive-phosphate incorporation)). Details: read-out: ATR Ki.
Type: biochemical
How it was run: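 Full-length human ATR (5 nM) was assayed at 25 °C in 50 mM Tris/HCl pH 7.5, 10 mM MgCl2, 1 mM DTT, with 10 μM [γ-33P]ATP and 800 μM peptide, after 10-min compound preincubation. Reactions were stopped after 24 h, captured on phosphocellulose and counted; Ki(app) came from non-linear regression of initial rates.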

Sequence of full-length ATR (Q13535 whole entry): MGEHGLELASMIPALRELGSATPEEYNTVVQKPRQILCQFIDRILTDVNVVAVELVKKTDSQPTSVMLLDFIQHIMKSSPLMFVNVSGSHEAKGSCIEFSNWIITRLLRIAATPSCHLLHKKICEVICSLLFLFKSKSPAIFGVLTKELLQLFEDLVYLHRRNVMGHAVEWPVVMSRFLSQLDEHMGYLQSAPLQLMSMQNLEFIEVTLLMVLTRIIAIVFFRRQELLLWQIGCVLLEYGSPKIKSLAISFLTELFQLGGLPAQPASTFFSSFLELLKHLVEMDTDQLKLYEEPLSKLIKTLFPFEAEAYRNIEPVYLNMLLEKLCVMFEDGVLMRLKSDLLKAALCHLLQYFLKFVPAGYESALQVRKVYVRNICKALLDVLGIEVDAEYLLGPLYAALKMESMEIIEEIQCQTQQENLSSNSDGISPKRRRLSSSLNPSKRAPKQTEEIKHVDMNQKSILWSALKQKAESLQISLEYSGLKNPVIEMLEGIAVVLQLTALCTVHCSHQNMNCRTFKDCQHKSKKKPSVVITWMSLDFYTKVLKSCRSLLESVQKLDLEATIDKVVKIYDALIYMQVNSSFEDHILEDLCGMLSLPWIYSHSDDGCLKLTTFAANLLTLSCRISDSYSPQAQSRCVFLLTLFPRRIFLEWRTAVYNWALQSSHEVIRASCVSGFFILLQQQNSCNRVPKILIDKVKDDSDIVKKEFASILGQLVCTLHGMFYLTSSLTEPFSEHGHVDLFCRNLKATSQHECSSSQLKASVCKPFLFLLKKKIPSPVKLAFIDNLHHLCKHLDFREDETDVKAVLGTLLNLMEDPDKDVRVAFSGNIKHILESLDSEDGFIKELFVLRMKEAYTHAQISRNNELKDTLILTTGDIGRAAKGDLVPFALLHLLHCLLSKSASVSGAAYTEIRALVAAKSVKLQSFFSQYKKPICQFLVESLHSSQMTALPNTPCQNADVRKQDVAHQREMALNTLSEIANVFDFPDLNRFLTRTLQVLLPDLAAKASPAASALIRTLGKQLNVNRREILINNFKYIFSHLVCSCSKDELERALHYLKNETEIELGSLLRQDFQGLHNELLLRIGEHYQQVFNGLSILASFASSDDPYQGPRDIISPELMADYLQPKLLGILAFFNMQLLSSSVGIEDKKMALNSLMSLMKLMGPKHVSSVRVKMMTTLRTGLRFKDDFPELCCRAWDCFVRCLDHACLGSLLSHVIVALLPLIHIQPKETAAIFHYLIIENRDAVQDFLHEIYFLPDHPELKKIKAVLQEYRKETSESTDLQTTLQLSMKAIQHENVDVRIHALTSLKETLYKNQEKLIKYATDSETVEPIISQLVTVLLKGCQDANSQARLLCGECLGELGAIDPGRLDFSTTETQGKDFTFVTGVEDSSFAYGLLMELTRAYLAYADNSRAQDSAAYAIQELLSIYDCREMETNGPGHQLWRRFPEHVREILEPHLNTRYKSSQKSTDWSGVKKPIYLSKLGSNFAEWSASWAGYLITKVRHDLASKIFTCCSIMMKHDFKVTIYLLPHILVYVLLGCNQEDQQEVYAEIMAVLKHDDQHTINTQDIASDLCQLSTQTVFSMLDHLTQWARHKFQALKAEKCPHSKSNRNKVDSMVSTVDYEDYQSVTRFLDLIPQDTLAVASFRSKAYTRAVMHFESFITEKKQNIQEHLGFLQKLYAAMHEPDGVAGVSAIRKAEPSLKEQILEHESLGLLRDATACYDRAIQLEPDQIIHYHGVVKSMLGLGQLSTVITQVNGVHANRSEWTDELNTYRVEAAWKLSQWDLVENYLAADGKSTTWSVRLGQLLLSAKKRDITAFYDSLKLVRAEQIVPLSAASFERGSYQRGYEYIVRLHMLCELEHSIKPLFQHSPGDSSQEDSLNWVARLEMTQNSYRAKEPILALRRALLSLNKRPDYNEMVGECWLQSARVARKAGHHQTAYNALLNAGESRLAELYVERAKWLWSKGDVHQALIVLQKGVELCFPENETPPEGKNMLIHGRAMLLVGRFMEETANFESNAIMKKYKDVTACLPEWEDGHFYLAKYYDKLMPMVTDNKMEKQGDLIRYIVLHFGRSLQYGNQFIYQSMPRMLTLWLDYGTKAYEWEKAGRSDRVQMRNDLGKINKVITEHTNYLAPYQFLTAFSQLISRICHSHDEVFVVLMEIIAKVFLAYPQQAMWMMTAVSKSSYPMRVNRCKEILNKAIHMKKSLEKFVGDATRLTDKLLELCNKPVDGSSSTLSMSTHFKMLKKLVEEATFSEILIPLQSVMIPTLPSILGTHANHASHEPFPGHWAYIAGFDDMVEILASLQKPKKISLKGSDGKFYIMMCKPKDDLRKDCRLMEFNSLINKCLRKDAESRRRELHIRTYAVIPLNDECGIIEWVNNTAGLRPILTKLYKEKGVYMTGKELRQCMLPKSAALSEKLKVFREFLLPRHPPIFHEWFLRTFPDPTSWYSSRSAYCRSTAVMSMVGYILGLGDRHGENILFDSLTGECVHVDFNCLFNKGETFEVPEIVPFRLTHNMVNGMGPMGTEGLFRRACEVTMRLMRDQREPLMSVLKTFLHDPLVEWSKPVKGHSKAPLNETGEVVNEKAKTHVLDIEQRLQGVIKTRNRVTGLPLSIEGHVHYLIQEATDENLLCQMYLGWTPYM

| Ki | SMILES |
| --- | --- |
| ≤ 10 nM | CC(C)S(=O)(=O)c1ccc(-c2cnc(N)c(-c3nnc(-c4ccc(CNC5CCOC5)cc4F)o3)n2)cc1 (centres unmarked) [IA-345, 3-[5-[2-fluoro-4-[(tetrahydrofuran-3-ylamino)methyl]phenyl]-1,3,4-oxadiazol-2-yl]-5-(4-isopropylsulfonylphenyl)pyrazin-2-amine] |
| ≤ 10 nM | CC(C)S(=O)(=O)c1ccc(-c2cnc(N)c(-c3nnc(-c4ccc(CNCCF)cc4)o3)n2)cc1 [IA-346, 3-[5-[4-[(2-fluoroethylamino)methyl]phenyl]-1,3,4-oxadiazol-2-yl]-5-(4-isopropylsulfonylphenyl)pyrazin-2-amine] |
| ≤ 10 nM | CNCc1ccc(-c2nnc(-c3nc(-c4ccc(S(=O)(=O)C5CCOC5)cc4)cnc3N)o2)c(F)c1 (centres unmarked) [IA-347, 3-[5-[2-fluoro-4-(methylaminomethyl)phenyl]-1,3,4-oxadiazol-2-yl]-5-(4-tetrahydrofuran-3-ylsulfonylphenyl)pyrazin-2-amine] |
| ≤ 10 nM | CC(C)S(=O)(=O)c1ccc(-c2cnc(N)c(-c3nnc(-c4ccc(CNCC(C)(C)O)cc4F)o3)n2)cc1 [IA-348, 1-(4-(5-(3-amino-6-(4-(isopropylsulfonyl)phenyl)pyrazin-2-yl)-1,3,4-oxadiazol-2-yl)-3-fluorobenzylamino)-2-methylpropan-2-ol] |
| ≤ 10 nM | Nc1ncc(-c2ccc(S(=O)(=O)C3CCOC3)cc2)nc1-c1nnc(-c2ccccc2F)o1 (centres unmarked) [IA-349, 3-[5-(2-fluorophenyl)-1,3,4-oxadiazol-2-yl]-5-(4-tetrahydrofuran-3-ylsulfonylphenyl)pyrazin-2-amine] |
| ≤ 10 nM | Nc1ncc(-c2ccc(C(=O)N3CCCNCC3)cc2)nc1-c1cc(-c2ccccc2)no1 [IIA-3] |
| ≤ 10 nM | CC(C)S(=O)(=O)c1ccc(-c2cnc(N)c(-c3cc(-c4ccc(CN)cc4)no3)n2)cc1 [IIA-5, 3-[3-[4-(aminomethyl)phenyl]isoxazol-5-yl]-5-(4-isopropylsulfonylphenyl)pyrazin-2-amine] |
| ≤ 10 nM | CCCNCc1ccc(-c2cc(-c3nc(-c4ccc(S(=O)(=O)C(C)C)cc4)cnc3N)on2)cc1 [IIA-6, 5-(4-(isopropylsulfonyl)phenyl)-3-(3-(4-((propylamino)methyl)phenyl)isoxazol-5-yl)pyrazin-2-amine] |
| ≤ 10 nM | CC(C)NCc1ccc(-c2cc(-c3nc(-c4ccc(S(=O)(=O)C(C)C)cc4)cnc3N)on2)cc1 [IIA-8, 3-[3-[4-[(isopropylamino)methyl]phenyl]isoxazol-5-yl]-5-(4-isopropylsulfonylphenyl)pyrazin-2-amine] |
| ≤ 10 nM | CC(C)S(=O)(=O)c1ccc(-c2cnc(N)c(-c3cc(-c4ccc(CNCCO)cc4)no3)n2)cc1 [IIA-9, 2-(4-(5-(3-amino-6-(4-(isopropylsulfonyl)phenyl)pyrazin-2-yl)isoxazol-3-yl)benzylamino)ethanol] |
| ≤ 10 nM | CCNCc1ccc(-c2cc(-c3nc(-c4ccc(S(=O)(=O)C(C)C)cc4)cnc3N)on2)cc1 [IIA-10, 3-[3-[4-(ethylaminomethyl)phenyl]isoxazol-5-yl]-5-(4-isopropylsulfonylphenyl)pyrazin-2-amine] |
| ≤ 10 nM | CNCc1ccc(-c2cc(-c3nc(-c4ccc(S(=O)(=O)C(C)C)cc4)cnc3N)on2)c(C)c1 [IIA-12, 5-(4-isopropylsulfonylphenyl)-3-[3-[2-methyl-4-(methylaminomethyl)phenyl]isoxazol-5-yl]pyrazin-2-amine] |
| ≤ 10 nM | CNCc1ccc(-c2cc(-c3nc(-c4ccc(S(=O)(=O)C(C)C)cc4)cnc3N)on2)cc1Cl [IIA-13, 3-[3-[3-chloro-4-(methylaminomethyl)phenyl]isoxazol-5-yl]-5-(4-isopropylsulfonylphenyl)pyrazin-2-amine] |
| ≤ 10 nM | CNCc1ccc(-c2cc(-c3nc(-c4ccc(S(=O)(=O)C(C)C)cc4)cnc3N)on2)c(F)c1 [IIA-14, 3-[3-[2-fluoro-4-(methylaminomethyl)phenyl]isoxazol-5-yl]-5-(4-isopropylsulfonylphenyl)pyrazin-2-amine] |

Reference: patent US10479784B2, “Substituted pyrazin-2-amines as inhibitors of ATR kinase” (Vertex Pharmaceuticals Incorporated, priority 2008, dated 2019)
